Results from PubChem BioAssay (NCI).
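Where inhibition never reached the appropriate level, the endpoint shown equals the highest concentration tested. Otherwise, values were interpolated linearly from a five-concentration, 48-hour dose response in 96-well plates. GI50 = concentration required for 50% inhibition of growth. Definition used: TGI = concentration required for complete inhibition of growth.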

Assays:
Assay in all cases: NCI tumour cell line growth inhibition, 48 h
A498 renal = system: A498 renal
M14 melanoma = system: M14 melanoma
HCT-116 colon = system: HCT-116 colon
ACHN renal = system: ACHN renal
COLO 205 colon = system: COLO 205 colon
NCI-H522 lung = system: NCI-H522 lung
SW-620 colon = system: SW-620 colon
RPMI-8226 leukemia = system: RPMI-8226 leukemia
U251 CNS = system: U251 CNS
HT29 colon = system: HT29 colon

SMILES	GI50 (A498 renal) [µM]	TGI (A498 renal) [µM]	GI50 (M14 melanoma) [µM]	TGI (M14 melanoma) [µM]	GI50 (HCT-116 colon) [µM]	TGI (HCT-116 colon) [µM]	GI50 (ACHN renal) [nM]	TGI (ACHN renal) [µM]	GI50 (COLO 205 colon) [µM]	TGI (COLO 205 colon) [µM]	GI50 (NCI-H522 lung) [µM]	TGI (NCI-H522 lung) [µM]	GI50 (SW-620 colon) [µM]	TGI (SW-620 colon) [µM]	GI50 (RPMI-8226 leukemia) [µM]	TGI (RPMI-8226 leukemia) [µM]	GI50 (U251 CNS) [µM]	TGI (U251 CNS) [µM]	TGI (HT29 colon) [µM]	GI50 (HT29 colon) [µM]
Cc1cc2c(cc1Cl)SC(=Nc1ccc(Cl)cc1)N(S(=O)(=O)c1ccc(Br)s1)S2(=O)=O	5.02	26.2	21.9	56.5	14.7	27.8	9050	21.1	17.8	> 100	37.3	> 100	24.5	> 100	3.7	21.5	8.57	21.4		
COc1cccc(C2CC(C)(O)Oc3cc4c(cc32)OCO4)c1 (stereo not drawn)				> 100		28.5		> 100		43.1		30.6		> 100		66.2		86.5	28.8	
CN(c1ccccc1)c1nc(=[N+](C)C)ss1		> 100		> 100		> 100		> 100				> 100		> 100				> 100	> 100	
CCC(=O)N1C(=S)SC[C@H]1C(=O)OC		> 100		> 100		> 100		> 100		> 100		> 100		> 100				> 100	> 100	
CC(C)CC(NC(=O)C(O)C(N)Cc1ccccc1)C(=O)O (stereo not drawn)				> 100		> 100		> 100		> 100				> 100		> 100		> 100	> 100	
CN1CCN(c2cc(F)c(NC3=C(Cl)C(=O)c4ncccc4C3=O)c(F)c2)CC1	10.9	23.7	1.82	3.39	0.646	2.26	1530	2.9	2	4.06	0.559	2.26	1.46	3.17			1.8	3.44	4.04	2
N#Cc1cnc2ccc(NCc3cnc[nH]3)cc2c1Nc1ccc(F)c(Cl)c1			14.3	> 100	6.85	> 100	2880	> 100	> 100	> 100	4.6	> 100	8.69	> 100	> 100	> 100	8.96	> 100	> 100	> 100
O=C(O)CN(CCN(CC(=O)O)CC(=O)O)CCN(CC(=O)O)CC(=O)O	1.86	15.1	5.29	21.5	3.42	12.7	2590	13.6	4.55	16.5			3.85	19			4.14	21.2	16.2	3.99
Cc1cc[c]([Sb]2[O]C(CO)C(C(O)C(O)C(=O)O)[O]2)cc1 (stereo not drawn)	32.3	99.7	90	> 100	33.7	> 100	> 100000	> 100			42.7	> 100	> 100	> 100			29.1	> 100	> 100	46.4
CCOC(=O)c1sc2nc(=S)[nH]c(NC(N)=S)c2c1C	27.8	62	26.5	64.6			15700	32.8	18.6	48.4	20.7	55	23.3	55.1	18.4	49.9	17.2	36.8	52.9	20.1
COc1ccc(C(O)C(c2ccc(OCc3ccccc3)cc2)c2ccc(OCc3ccccc3)cc2)cc1 (stereo not drawn)				> 100		> 100		> 100		> 100		> 100		> 100		> 100		> 100	> 100	
CN1CCN(CCCOC(=O)c2c3c(n4ccccc24)C(=O)c2ncccc2C3=O)CC1			< 0.0149	0.253	< 0.01	2.91	< 10	0.0154	< 0.0332	1.17	< 0.01	< 0.0164	< 0.01	0.0385	0.0653		< 0.01	0.0768	2.18	0.164
O=C1/C(=C/c2cc(O)c(O)c(O)c2)Oc2cc(O)cc(OC3OC(CO)C(O)C(O)C3O)c21 (stereo not drawn)		> 100		50.4		31.1		25.7		54.1				58.3		67.9			59.5	
CC1COS(=O)N1c1ccccc1 (stereo not drawn)		> 100		> 100				> 100		> 100		> 100		> 100		> 100		> 100	> 100	
O=[N+]([O-])c1ccc(Cl)c(C2CC(c3cccc4ccccc34)=Nc3ccccc3S2=O)c1 (stereo not drawn)		64.7		59.7		35.1		52.9		97.7				33.5		7.7		20.2	37.9	
Oc1ccc(CCNc2nc3ccccc3c3[nH]c4ccccc4c23)cc1O	13.6	26.5	2.62	7.28	1.4	2.7	2140	5.76	2.27	6.8			1.66	3.44			2.53	6.51	11.1	3.2
CCOc1ccc2c(c1)[n+]([O-])c(C(N)=O)c(N)[n+]2[O-]		> 100		> 100		> 100		> 100		> 100		> 100		> 100				> 100	> 100	
CSC(=Nc1ccc([N+](=O)[O-])cc1C#N)NC(=O)c1ccccc1		> 100		> 100		> 100		> 100		> 100				> 100		> 100		> 100	> 100	
CC1=NC2(C(=O)O)C3(C(=O)O)N=C(C)OC3(C(F)(F)F)C2(C(F)(F)F)O1 (stereo not drawn)		> 100		> 100		> 100		> 100		> 100		> 100		> 100				> 100	> 100	
